# Experimental data taken from patent US10934439B2, “Additives for coating compositions and related methods” (Massachusetts Institute of Technology, priority 2017, dated 2021).
# Key:
# [1] = Potentiodynamic polarization (Tafel tests) of galvanized steel in 3.5% NaCl with additives; settings: for Corrosion rate / Icorr (corrosion current density) / IE, inhibitor efficiency from Tafel: 25° C; for formation of white rust on the steel working electrode: millimolar or higher concentrations in 3.5% NaCl; for corrosion inhibitor efficiency compared with other additives: pH 5.3, equivalent concentrations
# Excerpt: The electrochemical open-to-air cell (PTC1™ Paint Test Cell, Gamry Instruments, Warminster, Pa.) was utilized for the potentiodynamic polarization (Tafel tests) and electrochemical impedance spectroscopy experiments. The electrochemical cell was composed of working electrode made of galvanized steel (zinc-galvanized sheets of type B carbon steel, ASTM A653, total thickness 0.305 mm, working area 2.2 cm^2 or 15.2 cm^2, McMaster Carr Supply Co., Robbinsvill, N.J.), reference Ag/AgCl electrode, and Pt wire auxiliary electrode (BASK) Corp., West Lafayette, Ind.). Prior to the immersion in the electrolyte (3.5% NaCl, pH adjusted to 5.25-5.3, 40 mL), the working electrodes were washed by acetone, ethanol, dried by nitrogen flow and polished with P1200 grit.^24 The working electrode was immersed into electrolyte containing the tested compound at a given concentration with desired pH at 25° C. for 60 min prior to each measurement. […] The carbon steel used herein was coated with the average minimum coating thickness per ASTM A653 being 2.0 mils (0.0508 mm) per surface. Tafel tests (ASTM GS) were conducted using a Parstat PMC-2000 multichannel potentiostat equipped with Versa Studio 2.50.3 software (Princeton Applied Research, Oak Ridge, Tenn.). Tafel tests were modeled with a ZSIMPWIN™ software for complex nonlinear least square analyses fitting the circuit models of the electrode interface to the Nyquist amplitude of 10 mV at the open circuit potential in the frequency range of 100 kHz to 0.2 Hz. Parameters for Tafel tests were as follows: initial potential, −1.25 V (vs reference); final potential, −0.45 V; scan properties: step height, 0.5 mV, step time, 2 s. In a series of measurements with the corrosion inhibiting additives, a range of the additive concentrations was studied and the scan range was set from 150 mV below the open circuit voltage (OCV) to 200 mV more positive than the OCV, with three measurements for each condition. The range in these measurements was limited in order to minimize the cathodic polarization causing local pH changes.
# In the vicinity of Ecorr both currents are present in the specimen, but experimentally it is possible to measure only the net current. The net current has a single measurable polarity, either positive or negative. At Ecorr the net measured current is exactly zero. The corrosion current (icorr) is expressed as (for definitions, see FIG. 13):
# [formula] where E.W. is the equivalent weight of the corroding species, g. In this case, the corroding species is Zn, so E.W.=32.7 g. Icorr, is the corrosion current density in μA/cm^2, and d is the density of the corroding species. Density of zinc is 7.140 g/cm^3.
# From the icorr values, inhibitor efficiencies (IE, %) were calculated as (equation (1)): […]
# [2] = Electrochemical impedance spectroscopy (EIS) of galvanized steel in 3.5% NaCl with additives; settings: for η, inhibitor efficiency from EIS: 3.5% NaCl, 25° C, pH 5.6, additive 10 mg/mL
# Procedure: The electrochemical open-to-air cell (PTC1™ Paint Test Cell, Gamry Instruments, Warminster, Pa.) was utilized for the potentiodynamic polarization (Tafel tests) and electrochemical impedance spectroscopy experiments. […] Tafel tests (ASTM GS) were conducted using a Parstat PMC-2000 multichannel potentiostat equipped with Versa Studio 2.50.3 software (Princeton Applied Research, Oak Ridge, Tenn.). Tafel tests were modeled with a ZSIMPWIN™ software for complex nonlinear least square analyses fitting the circuit models of the electrode interface to the Nyquist amplitude of 10 mV at the open circuit potential in the frequency range of 100 kHz to 0.2 Hz. […] In a series of measurements with the corrosion inhibiting additives, a range of the additive concentrations was studied and the scan range was set from 150 mV below the open circuit voltage (OCV) to 200 mV more positive than the OCV, with three measurements for each condition. The range in these measurements was limited in order to minimize the cathodic polarization causing local pH changes.
# EIS (FIGS. 17A and 17B) was applied to further reveal the effects of the corrosion inhibitors on the electrolyte-galvanized steel electrode interface and to complement the potentiodynamic polarization measurements. The qualitative information was obtained using fit analysis embedded into the software used to model the spectra, employing electrical equivalent circuits (EECs).
# Elements of the EECs are described in the legend to FIGS. 17A and 17B. The corrosion resistance of the galvanized steel surface in the presence of the corrosion inhibitor represents the RCT+Rp sum. In the control measurement without the additive, the spectrum with one time constant EEC was used, wherein the electrode resistance is represented by RCT.
# EIS measurements enabled estimation of the corrosion inhibition efficiency: […]
# [3] = cited from earlier work
# [4] = cited from earlier work; remark: listed apart in the source
# [5] = 44.7 mM, electrolyte containing 0.0165 wt % NaCl (pH not stated); cited from earlier work
# [6] = Hygroscopicity on standing in an open jar at 80% relative humidity; format: physicochemical; settings: converted to pasty solid
# Procedure: The crystals were hygroscopic and converted to caramel-like, pasty solid on standing in an open jar at 80% relative humidity. […] Thermogravimetric analysis (TGA) and simultaneous differential scanning calorimetry (DSC) were conducted using a Q600 TGA/DSC instrument (TA Instruments, Inc.). Samples were subjected to heating scans (10 or 20° C./min) in a temperature ramp mode under nitrogen atmosphere.
# [7] = Solubility / dissolution testing
# [8] = 3.5% NaCl, pH 5.3, [Mg2+] 71.8, [Ac−] 144, [TDPA] 0 meq/L
# [9] = 3.5% NaCl, pH 5.6, additive 10 mg/mL
# [10] = 3.5% NaCl, pH 2.1, [TDPA] 94.8 meq/L
# [11] = 3.5% NaCl, pH 5.3, [TDPA] 47.4 meq/L
# [12] = 3.5% NaCl, pH 5.3, [TDPA] 94.8 meq/L
# [13] = 3.5% NaCl, pH 5.3, [Mg2+] 9.93, [Ac−] 9.93, [TDPA] 15.9 meq/L
# [14] = 3.5% NaCl, pH 5.3, [Mg2+] 41.9, [Ac−] 41.9, [TDPA] 67.1 meq/L
# [15] = 3.5% NaCl, pH 5.3, [Mg2+] 62.9, [Ac−] 62.9, [TDPA] 101 meq/L
# [16] = 3.5% NaCl, pH 5.3, [Mg2+] 49.8, [TDPA] 49.8 meq/L
# [17] = 3.5% NaCl, pH 5.3, [Mg2+] 167, [TDPA] 33.5 meq/L
compound,measurement,setting,value
"CC(=O)[O-].CC(=O)[O-].O.O.O.O.[Mg+2] [MgAc2, magnesium acetate tetrahydrate, reference compound]",Corrosion rate,[1]; [8],37.0 mpy
same,Icorr (corrosion current density),[1]; [8],62.1 μA/cm^2
same,Corrosion rate,[1]; [9],8.03 mpy
same,"IE, inhibitor efficiency from Tafel",[1]; [9],48%
same,Icorr (corrosion current density),[1]; [9],13.5 μA/cm^2
same,"η, inhibitor efficiency from EIS",[2],41%
"O=C(O)CCSCCC(=O)O [TDPA, 3,3′-thiodipropionic acid, reference compound]",Corrosion rate,[1]; [10],474 mpy
same,Icorr (corrosion current density),[1]; [10],796 μA/cm^2
same,Corrosion rate,[1]; [11],26.5 mpy
same,Icorr (corrosion current density),[1]; [11],44.5 μA/cm^2
same,Corrosion rate,[1]; [12],16.9 mpy
same,Icorr (corrosion current density),[1]; [12],28.4 μA/cm^2
same,Corrosion rate,[1]; [9],2.47 mpy
same,"IE, inhibitor efficiency from Tafel",[1]; [9],84%
same,Icorr (corrosion current density),[1]; [9],4.15 μA/cm^2
same,formation of white rust on the steel working electrode,[1],visibly reduced the formation of white rust
same,"η, inhibitor efficiency from EIS",[2],81%
same,pKa,[3],4.11
same,solubility in solvents,[4],"soluble in water, acetone, and alcohol"
CCCCCCCCCC(=O)O [decanoic acid],inhibition efficiency η,[5],83.5%
magnesium acetate thiodipropionate [MgAcTDPA],Corrosion rate,[1]; [13],29.4 mpy
same,Icorr (corrosion current density),[1]; [13],49.3 μA/cm^2
same,Corrosion rate,[1]; [14],7.9 mpy
same,Icorr (corrosion current density),[1]; [14],13.3 μA/cm^2
same,Corrosion rate,[1]; [15],1.85 mpy
same,Icorr (corrosion current density),[1]; [15],3.12 μA/cm^2
same,Corrosion rate,[1]; [9],2.41 mpy
same,"IE, inhibitor efficiency from Tafel",[1]; [9],84%
same,Icorr (corrosion current density),[1]; [9],4.06 μA/cm^2
same,corrosion inhibitor efficiency compared with other additives,[1]; 3.5% NaCl,the most efficient corrosion inhibitor
same,formation of white rust on the steel working electrode,[1],visibly reduced the formation of white rust
same,"η, inhibitor efficiency from EIS",[2],80%
same,hygroscopicity of the crystals,[6],hygroscopic
same,concentration on dissolution in warm ethanol,[7]; warm ethanol,at least 10 wt %
magnesium thiodipropionate [MgTDPA1:1],effect on Icorr in Tafel plots (FIG. 16),"[1]; 10 mg/mL in 3.5% NaCl, pH 5.6, versus no additive and other additives",reduced the Icorr values the most
same,"breakdown potentials (instability of the oxide film, pitting corrosion)",[1]; 1-2 mM concentrations and above in the 3.5% NaCl electrolyte,increased
same,Corrosion rate,[1]; [16],21.1 mpy
same,Icorr (corrosion current density),[1]; [16],35.5 μA/cm^2
same,Corrosion rate,[1]; [9],1.07 mpy
same,"IE, inhibitor efficiency from Tafel",[1]; [9],93%
same,Icorr (corrosion current density),[1]; [9],1.79 μA/cm^2
same,corrosion inhibitor effectiveness compared with controls (data in Table 1),"[1]; galvanized steel, 3.5% NaCl",more effective corrosion inhibitor for galvanized steel than either TDPA or MgAc2
same,formation of white rust on the steel working electrode,[1],visibly reduced the formation of white rust
same,increase in total resistance Ri=RCT+Rp versus Ro=RCT without inhibitor,"[2]; 10 mg/mL in 3.5% NaCl, pH 5.6, 25° C",283 fold
same,"η, inhibitor efficiency from EIS",[2],99%
magnesium thiodipropionate [MgTDPA5:1],Corrosion rate,[1]; [17],50.7 mpy
same,Icorr (corrosion current density),[1]; [17],85.1 μA/cm^2
same,Corrosion rate,[1]; [9],4.65 mpy
same,"IE, inhibitor efficiency from Tafel",[1]; [9],69%
same,Icorr (corrosion current density),[1]; [9],7.82 μA/cm^2
same,corrosion inhibitor efficiency compared with other additives,[1]; 3.5% NaCl,quite effective in reducing the corrosion rate
same,"η, inhibitor efficiency from EIS",[2],72%
same,solubility in the electrolyte,"[7]; 3.5% NaCl electrolyte, yielded a suspension",only fractionally soluble
